Test results from article PMC7932537, “Quantitative profiling of protease specificity” (PLoS Computational Biology, 2021).

What follows are substances tested on MMP-2 (assay: Substrate phage display with NGS: relative probability (RP) of P3-P1' tetramer clusters). Conditions: MMP2 - no binning; average relative probability (RP) of the P3-P1' tetramer; redundant tetramers have been averaged out.
Format: biochemical, human

Substance | avg_RP
LWRI | 0
MALL | 16.9256
MFSL | 0.2905
MHEL | 0.0484
MLGL | 16.6463
MQNL | 23.8708
MQRL | 9.3428
NARL | 12.6743
NLAL | 5.8865
NLPL | 4.8994
PAHL | 34.5554
PASM | 32.7286
PAWL | 34.876
PAYL | 33.0829
PDQL | 0.2814
PERL | 16.3826
PFMI | 4.6361
PGSM | 25.6264

Substance | avg_RP
PHCL | 0.499
PLDM | 20.8822
PLNL | 34.7054
PLPW | 30.0861
PLRI | 15.7039
PLSI | 32.2576
PLSW | 31.2944
PMGM | 28.512
PMNL | 32.5586
PMSL | 32.4868
PNRL | 14.3701
PQAV | 23.1021
PQHL | 31.2196
PRWI | 30.8879
PSLI | 16.6444
PSRI | 23.675
PVNM | 30.0312
PWGL | 31.3204

Same assay, conditions: MMP2 - no binning; average relative probability of the P3-P1' tetramer; redundant tetramers have been averaged out

Substance | avg_RP
LMRL | 0.1149
LNSL | 18.3633
LNYL | 12.3459
LQKL | 13.1993
LQNL | 27.5155
LRHL | 22.7972
LRNI | 19.0698
LRQM | 8.6765
LRWW | 6.3129
LSHL | 29.8814
LSNL | 32.5007
LSRL | 14.3329
LTHL | 4.2994
LWKL | 0
LWSL | 8.3838
LWTL | 0.0853
LWYL | 0.6796
LYGL | 17.2472
LYHL | 4.5289
MASL [P3-P1' tetramer cluster] | 31.6834
MDLL | 0.2864
MFHL | 0.052
MLAL | 5.6722
MLHM | 4.7134
MLSL | 2.2282
MLSM | 5.2342
MMQL | 0.816

Substance | avg_RP
MMSL | 6.1978
MRHL | 14.413
MSSL | 27.4466
MWHL | 0.2013
PAGL [P3-P1' tetramer cluster] | 36.0156
PASL [P3-P1' tetramer cluster] | 36.4285
PAWM | 34.3571
PDFL | 1.02
PEML | 16.0599
PEWM | 12.3271
PFFL | 12.8224
PFFM | 3.5092
PFHL | 23.4724
PFRL | 16.3818
PFYL | 17.7778
PFYM | 8.1842
PGWL | 33.1284
PHLL | 16.4802
PHMM | 14.968
PHSM | 24.6739
PHWL | 28.844
PIML | 15.4441
PIPL | 33.1236
PKQL | 26.0949
PLAL | 34.4921
PLAS | 26.7589
PLHL | 34.1843

Substance | avg_RP
PLMM | 20.5706
PLNW | 28.8158
PLPQ | 24.381
PLSQ | 26.5842
PLTI | 16.7446
PMLL | 14.7282
PMQL | 27.6586
PMRL | 20.4124
PNWL | 26.5667
PNYI | 6.6891
PQSL | 33.5105
PQSW | 25.7009
PRAW | 34.1791
PRWM | 32.3694
PRYW | 20.9965
PSFL | 29.537
PSGM | 32.7604
PSML | 33.0235
PSNM | 32.3748
PSSL | 35.4913
PSWL | 35.705
PTSL | 28.926
PVGL | 35.2016
PVQL | 26.094
PWFL | 12.628
PWLQ | 0.2574

Same assay, conditions: MMP2 - no binning; average relative probability of the tetramer; redundant tetramers averaged out

Substance | avg_RP
LMGL | 28.5499
LNST | 0.4784
LRAM | 29.407
LRML | 9.0498
LRNL | 27.1336

Same assay, conditions: tetramer clusters unique to the MMP-2 selectome, MMP-2 RP

Substance | relative_probability
MASL [P3-P1' tetramer cluster] | 31.68

Same assay, conditions: tetramer probability in MMP2 set / naive library; 200 nM protease, 2 h, 37°C

Substance | relative probability (RP)
PAGL [P3-P1' tetramer cluster] | 36.0156
PASL [P3-P1' tetramer cluster] | 36.4285

Same assay, conditions: tetramer projected onto MMP-2 cleavage sites determined by Prudova et al. (2010)

Substance | relative probability (RP)
PASL [P3-P1' tetramer cluster] | 36.43
